The source of these data is article PMC6695681, “Hydrophobic Interactions Drive Binding between Vascular Endothelial Growth Factor-A (VEGFA) and Polyphenolic Inhibitors” (Molecules, 2019).

Several values for one entry are separate records, joined by “and”; a condition that tells them apart may be missing. Identical values can stand only once. Like-named read-outs stand apart in the source and are kept apart here.

The target in test [1] is T1, VEGF-165 (Homo sapiens, UniProt P15692).
T1 construct: purchased ReliaTech GmbH (Wolfenbüttel, Germany)
T1 sequence (P15692 27-191 isoform P15692-4 limits assumed): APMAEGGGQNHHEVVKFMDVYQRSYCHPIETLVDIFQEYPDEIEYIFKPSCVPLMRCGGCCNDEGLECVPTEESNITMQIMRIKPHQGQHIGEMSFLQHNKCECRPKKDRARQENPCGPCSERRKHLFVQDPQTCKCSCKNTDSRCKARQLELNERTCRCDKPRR
Briefly: Surface plasmon resonance binding of polyphenols to immobilised VEGF165.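 On all read-outs here: running buffer PBST with 1% DMSO, sensorgrams double referenced against a VEGF-free reference cell and blank injections, kinetics fitted to a 1:1 Langmuir binding model.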 The conditions noted are these: for koff: read-out: dissociation rate constant kd; for dissociation rate at 20 °C compared with 37 °C: 20 °C vs 37 °C, Figure 3B. Background: Surface plasmon resonance follows binding to a sensor surface in real time, without labels.

For test [2], the system named is VEGF-dependent VEGFR2 activation in HUVEC cells. Also on record: method as in Cerezo et al. [1]. The conditions noted are these: ref Cerezo et al. [1], read-out: IC50 (concentration causing 50% inhibition of VEGF activation in HUVEC cells), cited from earlier work.
In test [3] the target is T2, VEGF (Homo sapiens, UniProt P15692).
T2 construct: purchased ReliaTech GmbH (Wolfenbüttel, Germany)
T2 sequence (P15692 27-191 isoform P15692-4 limits assumed): T1 sequence (P15692 27-191 isoform P15692-4 limits assumed)
Briefly: SDS-page gels of VEGF treated with polyphenol, reducing and non-reducing conditions. The source says:
Binding occurs when intermolecular forces are established between VEGF and the phenolic ligand. […] Therefore, the interactions between VEGF and inhibitor polyphenols are likely to be non-covalent in nature. These forces could be the result of various interactions between the protein, the ligand, and the environment and are likely to be predominantly based on electrostatic (H bonding) and hydrophobic forces.
Figure 2 SDS-page gels of control (VEGF) and treatments (VEGF and apple procyanidin fraction dp4 or EGCG under (A) reducing conditions and (B) Non-reducing conditions.

Test [4] has as its target T1, VEGF-165. The test can be described thus: Far-UV circular dichroism of VEGF secondary structure upon binding EGCG. The protocol:
Circular dichroism (CD) in the far UV range (180–260 nm) was used to determine whether the secondary structure of VEGF changed upon binding EGCG. Circular dichroism spectra were measured for a fixed concentration of VEGF-165 (0.22 nmoles in 50 µL) with increasing amounts of EGCG (0, 1.36, 5.45 and 10.91 nmoles) and the spectra obtained are shown in Figure 4. Analysis of the spectra indicated the predominant features in the secondary structure of VEGF165 were random coil (unordered) and β-sheet, followed by smaller percentages of α-helix and turns. After adding EGCG at a mole ratio of 1:50 VEGF:EGCG, the VEGF secondary structure was altered with increases of 65% and 33% in α-helix and turns respectively, a reduction in the percentage of β-strands of 88%, and only a 3% reduction in the predominant unordered structure.
Circular Dichroism (CD) spectra were recorded using a Jasco J-715 spectropolarimeter (Easton, MD, USA) over a wavelength range of 185–260 nm in PBS solvent with 1% ethanol, using a quartz demountable CD cell with a path length of 0.1 mm. Averages of three runs of the protein spectra were collected a 37 °C at a scan speed of 20 nm/min and a band width of 1.0 nm. To account for any background effect the protein in buffer alone, the EGCG molecule in buffer alone, and the buffer alone were also measured. After background correction the spectra were converted to units of delta epsilon. Dichroweb analysis server http://dichroweb.cryst.bbk.ac.uk was used to analyse and estimate on line the secondary structure contents.
(CD spectra are sensitive to the conformation of chiral molecules.)

Setting [5] is: PBST, 37 °C, read-out: association rate constant ka.
[6] abbreviates: PBST, 37 °C, read-out: equilibrium constant KD.
[7] abbreviates: PBST, 37 °C (control runs of Table 2).

With `Oc1cc(O)c2c(c1)O[C@H](c1ccc(O)c(O)c1)[C@@H](O)C2` [(+) Catechin], the kon in test [1] (setting [5]) is 131 M⁻¹ s⁻¹. For the same compound, in test [1] (PBST, 37 °C), the koff was 0.00399 s⁻¹. Further, the Kd in test [1] (setting [6]) is 25000 nM and 24600 nM. Also, the IC50 in test [2] was 215000 nM.

In the case of `Oc1cc(O)c2c(c1)O[C@H](c1ccc(O)c(O)c1)[C@H](O)C2` [(-) Epicatechin], the kon in test [1] (setting [5]) was determined as 323 M⁻¹ s⁻¹. Also, the koff in test [1] (PBST, 37 °C) was found to be 0.000696 s⁻¹. The equilibrium dissociation constant (Kd) in test [1] (setting [6]) is 2710 nM.

As for `O=C(O[C@@H]1Cc2c(O)cc(O)cc2O[C@@H]1c1ccc(O)c(O)c1)c1cc(O)c(O)c(O)c1` [Epicatechin gallate (ECG), Epicatechin gallate], the kon in test [1] (setting [5]) was determined as 8240 M⁻¹ s⁻¹. Also, in test [1] (PBST, 37 °C), the koff was determined as 0.000633 s⁻¹. Also, the Kd in test [1] (setting [6]) was 35 nM and 34.8 nM. In addition, the IC50 in test [2] is 160 nM.

Consider `O=C(O[C@@H]1Cc2c(O)cc(O)cc2O[C@@H]1c1cc(O)c(O)c(O)c1)c1cc(O)c(O)c(O)c1` [Epigallocatechin gallate (EGCG), Epigallocatechin gallate], for which the “change in migration of treated VEGF on SDS page gels” value in test [3] is reported as “no change in migration”. For the same compound, the “dissociation rate at 20 °C compared with 37 °C” value in test [1] was “higher at 20 °C than at 37 °C”. Further, the kd was 0.00037 ± 4e-05 s⁻¹ in test [1] (PBST + 0.5 M NaCl, 37 °C); 0.00033 ± 4e-05 s⁻¹ in test [1] (PBST + 1 M NaCl, 37 °C); 0.00036 ± 2.1e-05 s⁻¹ in test [1] (PBST + 1 M urea, 37 °C); 0.0017 ± 7e-05 s⁻¹ in test [1] (PBST + 10% ethanol, 37 °C); 0.00026 ± 5.2e-05 s⁻¹ in test [1] (PBST + 10 M ethylene glycol, 37 °C); 0.0002 ± 5e-05 s⁻¹ in test [1] (PBST + 30% ethanol, 37 °C). Moreover, the kd in test [1] (setting [7]) is 0.00068 ± 2.9e-06 s⁻¹ and 0.00088 ± 5.2e-05 s⁻¹ and 0.00072 ± 5e-05 s⁻¹. Further, the Kd in test [1] (PBST + 0.5 M NaCl, 37 °C, read-out: KD) amounted to 60 nM; in test [1] (PBST + 1 M NaCl, 37 °C, read-out: KD) it was 35 nM; in test [1] (PBST + 1 M urea, 37 °C, read-out: KD), 71 nM; in test [1] (PBST + 10% ethanol, 37 °C, read-out: KD), 810 nM; in test [1] (PBST + 10 M ethylene glycol, 37 °C, read-out: KD), 420 nM; in test [1] (PBST + 30% ethanol, 37 °C, read-out: KD), 470 nM. The Kd in test [1] (PBST, 37 °C (control runs of Table 2), read-out: KD) is 110 nM and 170 nM and 140 nM; in test [1] (setting [6]) it was 112 nM. Also, the kon amounted to 5180 ± 92 M⁻¹ s⁻¹ in test [1] (PBST + 0.5 M NaCl, 37 °C, read-out: ka); 6500 ± 260 M⁻¹ s⁻¹ in test [1] (PBST + 1 M NaCl, 37 °C, read-out: ka); 5160 ± 100 M⁻¹ s⁻¹ in test [1] (PBST + 1 M urea, 37 °C, read-out: ka); 2460 ± 60 M⁻¹ s⁻¹ in test [1] (PBST + 10% ethanol, 37 °C, read-out: ka); 796 ± 45 M⁻¹ s⁻¹ in test [1] (PBST + 10 M ethylene glycol, 37 °C, read-out: ka); 482 ± 21 M⁻¹ s⁻¹ in test [1] (PBST + 30% ethanol, 37 °C, read-out: ka). Besides, the kon in test [1] (PBST, 37 °C (control runs of Table 2), read-out: ka) was 6147 ± 52 M⁻¹ s⁻¹; in test [1] (setting [5]), 6300 M⁻¹ s⁻¹. The ka in test [1] (setting [7]) is 5184 ± 64 M⁻¹ s⁻¹ and 6052 ± 64 M⁻¹ s⁻¹. Moreover, the koff in test [1] (PBST, 37 °C) is 0.000625 s⁻¹. For the same compound, the IC50 in test [2] (listed as EGCG) was 88 nM; in test [2] it was 90 nM. For the same compound, the “position of the negative band in CD far UV spectra” value in test [4] (EGCG mixed with VEGF, 201 nm for VEGF alone) is 211 nm. In addition, in test [4] (after mixing with EGCG), the “time taken by conformational changes in VEGF” value was “less than 90 s”. In addition, the “increase in turns of VEGF secondary structure” value in test [4] (mole ratio 1:50 VEGF:EGCG) is given as 33%. In addition, the “increase in α-helix of VEGF secondary structure” value in test [4] (mole ratio 1:50 VEGF:EGCG) was determined as 65%. In test [4] (mole ratio 1:50 VEGF:EGCG), the “reduction in the percentage of β-strands of VEGF” value came to 88%. Besides, the “reduction in the predominant unordered structure of VEGF” value in test [4] (mole ratio 1:50 VEGF:EGCG) was 3%.

Turning to `O=C(O)c1cc(O)c(O)c(O)c1` [Gallic acid], the kon in test [1] (setting [5]) amounted to 166 M⁻¹ s⁻¹. The koff in test [1] (PBST, 37 °C) came out at 0.000391 s⁻¹. The Kd in test [1] (setting [6]) came out at 5520 nM.

Take `O=c1c(O)c(-c2cc(O)c(O)c(O)c2)oc2cc(O)cc(O)c12` [Myricetin]: the dissociation constant Kd in test [1] (setting [6]) turned out to be 4460 nM. Also, the IC50 is 121 nM in test [2] (listed as myricetin) and 120 nM in test [2].

For `Oc1cc(O)c2c(c1)OC(c1ccc(O)c(O)c1)C(O)C2c1c(O)cc(O)c2c1OC(c1ccc(O)c(O)c1)C(O)C2` (stereo not shown) [Procyanidin Dp2], the kon in test [1] (setting [5]) was 548 M⁻¹ s⁻¹. Further, in test [1] (PBST, 37 °C), the koff was 0.001 s⁻¹. In test [1] (setting [6]), the dissociation constant (Kd) worked out at 637 nM. For the same compound, in test [2], the IC50 was 52600 nM.

As for `Oc1cc(O)c2c(c1)OC(c1ccc(O)c(O)c1)C(O)C2c1c(O)cc(O)c2c1OC(c1ccc(O)c(O)c1)C(O)C2c1c(O)cc(O)c2c1OC(c1ccc(O)c(O)c1)C(O)C2` (stereo not shown) [Procyanidin Dp3], the “dissociation rate at 20 °C compared with 37 °C” value in test [1] was “higher at 20 °C than at 37 °C”. For the same compound, the kon in test [1] (setting [5]) came to 2910 M⁻¹ s⁻¹. Besides, the koff in test [1] (PBST, 37 °C) is 0.00093 s⁻¹. In addition, the dissociation constant Kd in test [1] (setting [6]) is 351 nM. Further, the IC50 in test [2] was 780 nM.

Take `Oc1cc(O)c2c(c1)OC(c1ccc(O)c(O)c1)C(O)C2c1c(O)cc(O)c2c1OC(c1ccc(O)c(O)c1)C(O)C2c1c(O)cc(O)c2c1OC(c1ccc(O)c(O)c1)C(O)C2c1c(O)cc(O)c2c1OC(c1ccc(O)c(O)c1)C(O)C2c1c(O)cc(O)c2c1OC(c1ccc(O)c(O)c1)C(O)C2c1c(O)cc(O)c2c1OC(c1ccc(O)c(O)c1)C(O)C2c1c(O)cc(O)c2c1OC(c1ccc(O)c(O)c1)C(O)C2c1c(O)cc(O)c2c1OC(c1ccc(O)c(O)c1)C(O)C2c1c(O)cc(O)c2c1OC(c1ccc(O)c(O)c1)C(O)C2` (stereo not shown) [Procyanidin Dp9]: the “dissociation rate at 20 °C compared with 37 °C” value in test [1] is “higher at 20 °C than at 37 °C”. In test [1] (setting [6]), the dissociation constant Kd came out at 341 nM.

Turning to `O=c1c(O)c(-c2ccc(O)c(O)c2)oc2cc(O)c(O)c(O)c12` [Quercetagetin], the kon in test [1] (setting [5]) was determined as 858 M⁻¹ s⁻¹. The koff in test [1] (PBST, 37 °C) came out at 0.000826 s⁻¹. Also, in test [1] (setting [6]), the Kd was determined as 934 nM. Moreover, the IC50 in test [2] is 100 nM.

The term Kd denotes the constant that tells how readily two partners part at equilibrium.
